Measured values taken from patent US20170283404A1, “CRYSTALLINE FORMS OF 2-(4-(4-ETHOXY-6-OXO-1,6-DIHYDROPYRIDIN-3-YL)-2-FLUOROPHENYL)-N-(5-(1,1,1-TRIFLUORO-2-METHYLPROPAN-2-YL)ISOXAZOL-3-YL)ACETAMIDE” (GLAXOSMITHKLINE INTELLECTUAL PROPERTY DEVELOPMENT LIMITED, priority 2014, published 2017).

Test: Drying of crystalline form in vacuum oven (solid-state stability)
Format: physicochemical
Settings: vacuum oven at 50° C. with a nitrogen bleed for about 17 hours

Structure (SMILES): CCOc1cc(=O)[nH]cc1-c1ccc(CC(=O)Nc2cc(C(C)(C)C(F)(F)F)on2)c(F)c1 [Compound A—Monohydrate, 2-(4-(4-ethoxy-6-oxo-1,6-dihydropyridin-3-yl)-2-fluorophenyl)-N-(5-(1,1,1-trifluoro-2-methylpropan-2-yl)isoxazol-3-yl)acetamide]
- change in form by Raman or XRPD after drying: no change in form
- change to the water content by TGA after drying: no change to the water content
